The values that follow come from patent US11117900B2 (Vertex Pharmaceuticals Incorporated, priority 2012, dated 2021).

Structures are written as SMILES.

The test system of this assay is HCT116 colorectal cancer cells. In words: Cisplatin sensitization assay (96 h MTS cell viability).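 Further: compound concentration needed to lower the IC50 of Cisplatin alone by a set fold.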 Format: cell-based. The settings on record: Cisplatin sensitization value. A digest of the protocol: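 The MTS viability read, after 1 h with reagent, followed 96 h of co-treatment at 37° C. in 5% CO2. Both compound and cisplatin were titrated 2-fold from a 10 μM top final concentration in a complete concentration matrix on HCT116 cells. Scores +++/++/+ reflect cisplatin sensitization value ranges.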
With `Nc1nn2cc(F)cnc2c1C(=O)Nc1cnccc1-c1ccc(C(=O)N2CCC(N3CCC3)CC2)nc1` [I-C-54, 2-amino-N-(6-(4-(azetidin-1-yl)piperidine-1-carbonyl)-[3,4′-bipyridin]-3′-yl)-6-fluoropyrazolo[1,5-a]pyrimidine-3-carboxamide], the “Cisplatin Sensitization Assay” value was “+++ (Compounds with a Cisplatin sensitization value of <0.02 μM are marked with “+++.”)”.

For the compound `N#CC1CN(C(=O)C2CCN(c3ccncc3NC(=O)c3c(N)nn4cc(F)cnc34)CC2)C1` [I-G-81, 2-amino-N-(4-(4-(3-cyanoazetidine-1-carbonyl)piperidin-1-yl)pyridin-3-yl)-6-fluoropyrazolo[1,5-a]pyrimidine-3-carboxamide], the “Cisplatin Sensitization Assay” value is given as “+++ (Compounds with a Cisplatin sensitization value of <0.02 μM are marked with “+++.”)”.

Consider `CN1CCN(C(=O)C2CCN(c3c(Cl)cncc3NC(=O)c3c(N)nn4cc(F)cnc34)CC2)CC1` [I-G-3, 2-amino-N-(5-chloro-4-(4-(4-methylpiperazine-1-carbonyl)piperidin-1-yl)pyridin-3-yl)-6-fluoropyrazolo[1,5-a]pyrimidine-3-carboxamide], for which the “Cisplatin Sensitization Assay” value is listed as “+++ (Compounds with a Cisplatin sensitization value of <0.02 μM are marked with “+++.”)”.

Consider `Nc1nn2cc(F)cnc2c1C(=O)Nc1cncc(F)c1N1CCC(C(=O)N2CCC(N3CCC3)CC2)CC1` [I-G-68, 2-amino-N-(4-(4-(4-(azetidin-1-yl)piperidine-1-carbonyl)piperidin-1-yl)-5-fluoropyridin-3-yl)-6-fluoropyrazolo[1,5-a]pyrimidine-3-carboxamide], for which the “Cisplatin Sensitization Assay” value is recorded as “+++ (Compounds with a Cisplatin sensitization value of <0.02 μM are marked with “+++.”)”.

As for `Nc1nn2cc(F)cnc2c1C(=O)Nc1cnccc1N1CCN(C2COC2)CC1` [I-N-1, 2-amino-6-fluoro-N-(4-(4-(oxetan-3-yl)piperazin-1-yl)pyridin-3-yl)pyrazolo[1,5-a]pyrimidine-3-carboxamide], the “Cisplatin Sensitization Assay” value is given as “++ (Compounds with a Cisplatin sensitization value >0.02 μM but <0.2 μM are marked with “++.”)”.

As for `CN(C)C(=O)[C@H]1CC[C@@H](Oc2ccncc2NC(=O)c2c(N)nn3cc(F)cnc23)CC1` [I-O-17, 2-amino-N-(4-(((1s,4s)-4-(dimethylcarbamoyl)cyclohexyl)oxy)pyridin-3-yl)-6-fluoropyrazolo[1,5-a]pyrimidine-3-carboxamide], the “Cisplatin Sensitization Assay” value was “+++ (Compounds with a Cisplatin sensitization value of <0.02 μM are marked with “+++.”)”.

For the compound `N#CCc1cnc2c(C(=O)Nc3cnccc3N3CCCCC3)c(N)nn2c1` [I-N-84, 2-amino-6-(cyanomethyl)-N-(4-(piperidin-1-yl)pyridin-3-yl)pyrazolo[1,5-a]pyrimidine-3-carboxamide], the “Cisplatin Sensitization Assay” value is recorded as “+++ (Compounds with a Cisplatin sensitization value of <0.02 μM are marked with “+++.”)”.

For `CCOc1ccncc1NC(=O)c1c(N)nn2cc(Cl)cnc12` [I-O-56, 2-amino-6-chloro-N-(4-ethoxypyridin-3-yl)pyrazolo[1,5-a]pyrimidine-3-carboxamide], the “Cisplatin Sensitization Assay” value is reported as “+++ (Compounds with a Cisplatin sensitization value of <0.02 μM are marked with “+++.”)”.

On to `Nc1nn2cc(F)cnc2c1C(=O)Nc1cnccc1OC1COC1` [I-O-92, 2-amino-6-fluoro-N-(4-(oxetan-3-yloxy)pyridin-3-yl)pyrazolo[1,5-a]pyrimidine-3-carboxamide], for which the “Cisplatin Sensitization Assay” value is “+++ (Compounds with a Cisplatin sensitization value of <0.02 μM are marked with “+++.”)”.

Take `Nc1nn2cc(F)cnc2c1C(=O)Nc1cncc(F)c1N1CCC(C(=O)N2CC(F)(F)C2)CC1` [I-G-73, 2-amino-N-(4-(4-(3,3-difluoroazetidine-1-carbonyl)piperidin-1-yl)-5-fluoropyridin-3-yl)-6-fluoropyrazolo[1,5-a]pyrimidine-3-carboxamide]: the “Cisplatin Sensitization Assay” value was “+++ (Compounds with a Cisplatin sensitization value of <0.02 μM are marked with “+++.”)”.

On to `Nc1nn2cc(F)cnc2c1C(=O)Nc1cnccc1N1CCC(C(=O)N2CCC3(COC3)C2)CC1` [I-G-84, N-(4-(4-(2-oxa-6-azaspiro[3.4]octane-6-carbonyl)piperidin-1-yl)pyridin-3-yl)-2-amino-6-fluoropyrazolo[1,5-a]pyrimidine-3-carboxamide], for which the “Cisplatin Sensitization Assay” value is “+++ (Compounds with a Cisplatin sensitization value of <0.02 μM are marked with “+++.”)”.

`Nc1nn2cc(F)cnc2c1C(=O)Nc1cncc(F)c1N1CCC(C(=O)N2CCN3CCCC3C2)CC1` (stereo not shown) [I-G-10, 2-amino-6-fluoro-N-(5-fluoro-4-(4-(octahydropyrrolo[1,2-a]pyrazine-2-carbonyl)piperidin-1-yl)pyridin-3-yl)pyrazolo[1,5-a]pyrimidine-3-carboxamide]: the “Cisplatin Sensitization Assay” value is reported as “+++ (Compounds with a Cisplatin sensitization value of <0.02 μM are marked with “+++.”)”.

With `Nc1nn2cc(F)cnc2c1C(=O)Nc1cnccc1O[C@H]1Cc2nccn2C1` [I-O-16, (S)-2-amino-N-(4-((6,7-dihydro-5H-pyrrolo[1,2-a]imidazol-6-yl)oxy)pyridin-3-yl)-6-fluoropyrazolo[1,5-a]pyrimidine-3-carboxamide], the “Cisplatin Sensitization Assay” value was “+++ (Compounds with a Cisplatin sensitization value of <0.02 μM are marked with “+++.”)”.

With `Nc1nn2cc(F)cnc2c1C(=O)Nc1cncc(C2CC2)c1N1CCN([C@@H]2CCOC2)CC1` [I-N-119, (R)-2-amino-N-(5-cyclopropyl-4-(4-(tetrahydrofuran-3-yl)piperazin-1-yl)pyridin-3-yl)-6-fluoropyrazolo[1,5-a]pyrimidine-3-carboxamide], the “Cisplatin Sensitization Assay” value is given as “++ (Compounds with a Cisplatin sensitization value >0.02 μM but <0.2 μM are marked with “++.”)”.

On to `Nc1nn2cc(F)cnc2c1C(=O)Nc1cncc(F)c1N1CCN(S(=O)(=O)C2CCOCC2)CC1` [I-N-158, 2-amino-6-fluoro-N-(5-fluoro-4-(4-((tetrahydro-2H-pyran-4-yl)sulfonyl)piperazin-1-yl)pyridin-3-yl)pyrazolo[1,5-a]pyrimidine-3-carboxamide], for which the “Cisplatin Sensitization Assay” value is recorded as “+++ (Compounds with a Cisplatin sensitization value of <0.02 μM are marked with “+++.”)”.

Take `CN1CCN(c2ccncc2NC(=O)c2c(N)nn3cc(F)cnc23)CC12CCOCC2` [I-N-133, 2-amino-6-fluoro-N-(4-(1-methyl-9-oxa-1,4-diazaspiro[5.5]undecan-4-yl)pyridin-3-yl)pyrazolo[1,5-a]pyrimidine-3-carboxamide]: the “Cisplatin Sensitization Assay” value is “++ (Compounds with a Cisplatin sensitization value >0.02 μM but <0.2 μM are marked with “++.”)”.

Take `Nc1nn2cc(F)cnc2c1C(=O)Nc1cnccc1-c1ccccn1` [I-C-60, N-([2,4′-bipyridin]-3′-yl)-2-amino-6-fluoropyrazolo[1,5-a]pyrimidine-3-carboxamide]: the “Cisplatin Sensitization Assay” value is given as “++ (Compounds with a Cisplatin sensitization value >0.02 μM but <0.2 μM are marked with “++.”)”.

Consider `Nc1nn2cc(F)cnc2c1C(=O)Nc1cnccc1CN1CCCC1=O` [I-C-76, 2-amino-6-fluoro-N-(4-((2-oxopyrrolidin-1-yl)methyl)pyridin-3-yl)pyrazolo[1,5-a]pyrimidine-3-carboxamide], for which the “Cisplatin Sensitization Assay” value is “+ (Compounds with a Cisplatin sensitization value >0.2 μM but <5 μM are marked with “+.”)”.

Consider `CN1CCOC[C@@H]1c1ccc(-c2ccncc2NC(=O)c2c(N)nn3cc(F)cnc23)cc1` [I-C-66, (S)-2-amino-6-fluoro-N-(4-(4-(4-methylmorpholin-3-yl)phenyl)pyridin-3-yl)pyrazolo[1,5-a]pyrimidine-3-carboxamide], for which the “Cisplatin Sensitization Assay” value is “+++ (Compounds with a Cisplatin sensitization value of <0.02 μM are marked with “+++.”)”.

Take `CN1CCN(C(=O)C2CCN(c3c(F)cncc3NC(=O)c3c(N)nn4cc(F)cnc34)CC2)CC1` [I-G-4, 2-amino-6-fluoro-N-(5-fluoro-4-(4-(4-methylpiperazine-1-carbonyl)piperidin-1-yl)pyridin-3-yl)pyrazolo[1,5-a]pyrimidine-3-carboxamide]: the “Cisplatin Sensitization Assay” value is “+++ (Compounds with a Cisplatin sensitization value of <0.02 μM are marked with “+++.”)”.

Take `Nc1nn2cc(F)cnc2c1C(=O)Nc1cnccc1-c1cccnc1F` [I-C-35, 2-amino-6-fluoro-N-(2-fluoro-[3,4′-bipyridin]-3′-yl)pyrazolo[1,5-a]pyrimidine-3-carboxamide]: the “Cisplatin Sensitization Assay” value is reported as “+++ (Compounds with a Cisplatin sensitization value of <0.02 μM are marked with “+++.”)”.

For `Nc1nn2cc(F)cnc2c1C(=O)Nc1cncc(F)c1N1CCC(S(=O)(=O)N2CCC2)CC1` [I-N-169, 2-amino-N-(4-(4-(azetidin-1-ylsulfonyl)piperidin-1-yl)-5-fluoropyridin-3-yl)-6-fluoropyrazolo[1,5-a]pyrimidine-3-carboxamide], the “Cisplatin Sensitization Assay” value is on record as “+++ (Compounds with a Cisplatin sensitization value of <0.02 μM are marked with “+++.”)”.

As to `Nc1nn2cc(F)cnc2c1C(=O)Nc1cncc(F)c1N1CCN(C(=O)C2CC3CCCCN3C2)CC1` (stereo not shown) [I-N-203, 2-amino-6-fluoro-N-(5-fluoro-4-(4-(octahydroindolizine-2-carbonyl)piperazin-1-yl)pyridin-3-yl)pyrazolo[1,5-a]pyrimidine-3-carboxamide], the “Cisplatin Sensitization Assay” value is listed as “+++ (Compounds with a Cisplatin sensitization value of <0.02 μM are marked with “+++.”)”.

Turning to `CN1CCN(C(=O)C2CCN(c3c(F)cncc3NC(=O)c3c(N)nn4cc(F)cnc34)C2)CC1` (stereo not shown) [I-N-191, 2-amino-6-fluoro-N-(5-fluoro-4-(3-(4-methylpiperazine-1-carbonyl)pyrrolidin-1-yl)pyridin-3-yl)pyrazolo[1,5-a]pyrimidine-3-carboxamide], the “Cisplatin Sensitization Assay” value is given as “+ (Compounds with a Cisplatin sensitization value >0.2 μM but <5 μM are marked with “+.”)”.

Turning to `Nc1nn2cc(F)cnc2c1C(=O)Nc1cncc(F)c1N1CCC(N2CCOCC2)CC1` [I-N-189, 2-amino-6-fluoro-N-(5-fluoro-4-(4-morpholinopiperidin-1-yl)pyridin-3-yl)pyrazolo[1,5-a]pyrimidine-3-carboxamide], the “Cisplatin Sensitization Assay” value is on record as “+++ (Compounds with a Cisplatin sensitization value of <0.02 μM are marked with “+++.”)”.
